In assay [1] the test system is cultured human mast cells (CHMC). Briefly: CHMC low cell density ionomycin activation: tryptase assay. It is filed as cell-based. As to conditions: low cell density CHMC, read-out: LD Tryptase, CHMC, Iono, 3 pt.
Assay [2] shares this test system. Briefly: CHMC low cell density IgE activation: tryptase assay. As to conditions: low cell density CHMC, IgE activation. It is filed as cell-based. The essentials: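 Low-density CHMC, 1000-1500 cells/well in MT; 1 hr 37 °C; anti-IgE challenge 30 min 37 °C; supernatant tryptase via fluorogenic substrate, 30 min RT.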
[3] abbreviates: tryptase, 3 pt, read-out: LD Tryptase, CHMC, IgE, 3 pt.
Where [4] appears, read: tryptase, 8 pt, read-out: LD Tryptase, CHMC, IgE, 8 pt.
[5] abbreviates: Homo sapiens, Mast cell, tryptase release, 3 pt.
[6] abbreviates: Homo sapiens, Mast cell, tryptase release, 3 pt, read-out: LD Tryptase, CHMC, IgE, 3 pt.
Where [7] appears, read: Homo sapiens, Mast cell, tryptase release, 8 pt, read-out: LD Tryptase, CHMC, IgE, 8 pt.
Where [8] appears, read: tryptase release, 3 pt, read-out: LD Tryptase, CHMC, IgE, 3 pt.
[9] abbreviates: tryptase release, 8 pt, read-out: LD Tryptase, CHMC, IgE, 8 pt.

In the case of “2-Chloro-N4-[3-chloro-4- (N-methylamino)carbonylmethyleneoxyphenyl]-5-fluoro-N4-methyl-4-pyrimidineamine [Compound 661]”, the IC50 in assay [1] (tryptase release, 3 point) was greater than 10 µM; in assay [2] (tryptase release, 3 point, read-out: LD Tryptase, CHMC, IgE, 3 pt), greater than 10 µM.
On to “5-Fluoro-N4- (4-hydroxy-3,4-dihydro-2H-1-benzopyran-6-yl)-N2-[4- (oxazol-5-yl)phenyl]-2,4-pyrimidinediamine [Compound 1290]”, for which the IC50 in assay [1] (tryptase, 3 pt) was greater than 10 µM; in assay [2] (setting [3]), less than 10 µM; in assay [2] (setting [4]), less than 10 µM.
`NC1CCOc2ccc(Nc3nc(Nc4cccc(-c5cnco5)c4)ncc3F)cc21` (racemic) [Compound 1292, (R,S)-N4-[4-Amino-3,4-dihydro-2H-1-benzopyran-6-yl]-5-fluoro-N2-[3-(oxazol-5-yl)phenyl]-2,4-pyrimidinediamine]: the IC50 in assay [1] (tryptase, 3 pt) was greater than 10 µM; in assay [2] (setting [3]) it was less than 10 µM; in assay [2] (setting [4]), less than 10 µM.
In the case of `CNC(=O)CNC(=O)c1ccc(Nc2ncc(F)c(Nc3ccc4c(c3)C(NC(=O)OC(C)(C)C)CCO4)n2)cc1` (racemic) [Compound 1298, (R,S)-N4-[4-(N-tert-Butoxycarbonyl)amino-3,4-dihydro-2H-1-benzopyran-6-yl]-5-fluoro-N2-[4-[N-(N-methylamino)carbonylmethylene]aminocarbonylphenyl]-2,4-pyrimidinediamine], the IC50 in assay [1] (tryptase, 3 pt) is greater than 10 µM; in assay [2] (setting [3]) it was less than 10 µM.
Regarding `COc1cc(C)c(Nc2ncc(F)c(Nc3ccc4c(c3)NC(=O)[C@H](C)O4)n2)cc1Cl` [Compound 214], the IC50 in assay [1] (setting [5]) is greater than 10 µM; in assay [2] (setting [6]), less than 10 µM; in assay [2] (setting [7]), less than 10 µM.
`COc1cc(OC)c(-c2nc(N)nc(Nc3ccc4c(c3)NC(=O)[C@H](C)O4)c2F)cc1Cl` [Compound 215]: the IC50 was greater than 10 µM in assay [1] (setting [5]), less than 10 µM in assay [2] (setting [6]) and less than 10 µM in assay [2] (setting [7]).
With `COc1cc(C)c(Nc2ncc(F)c(Nc3ccc4c(c3)NC(C)(C)CO4)n2)cc1Cl` [Compound 216, N2-(3-Chloro-4-methoxy-6-methylphenyl)-N4-(3,4-dihydro-3,3-dimethyl-2H,4H-benz[1,4]oxazin-6-yl)-5-fluoro-2,4-pyrimidinediamine], the IC50 is greater than 10 µM in assay [1] (tryptase release, 3 pt); less than 10 µM in assay [2] (setting [8]); less than 10 µM in assay [2] (setting [9]).
As for `Fc1cnc(Nc2cccc(-c3ncco3)c2)nc1Nc1ccc2c(c1)NCCO2` [Compound 217, N4-(3,4-Dihydro-2H,4H-benz[1,4]oxazin-6-yl)-5-fluoro-N2-[3-(oxazol-2-yl)phenyl]-2,4-pyrimidinediamine], the IC50 in assay [1] (tryptase release, 3 pt) is greater than 10 µM; in assay [2] (setting [8]) it was less than 10 µM; in assay [2] (setting [9]), less than 10 µM.
Consider `CC1(C)COc2ccc(Nc3nc(Nc4cccc(-c5ncco5)c4)ncc3F)cc2N1` [Compound 218, N4-(3,4-Dihydro-3,3-dimethyl-2H,4H-benz[1,4]oxazin-6-yl)-5-fluoro-N2-[3-(oxazol-2-yl)phenyl]-2,4-pyrimidinediamine], for which the IC50 is greater than 10 µM in assay [1] (tryptase release, 3 pt); less than 10 µM in assay [2] (setting [8]); less than 10 µM in assay [2] (setting [9]).
For the molecule `O=C1COc2ccc(Nc3nc(Nc4cccc(-c5ncco5)c4)ncc3F)cc2N1` [Compound 219], the IC50 in assay [1] (setting [5]) is greater than 10 µM; in assay [2] (setting [6]), less than 10 µM; in assay [2] (setting [7]) it was less than 10 µM.
Turning to `O=C1COc2cc(Nc3nc(Nc4cccc(-c5ncco5)c4)ncc3F)ccc2N1` [Compound 220], the IC50 was greater than 10 µM in assay [1] (setting [5]), less than 10 µM in assay [2] (setting [6]) and less than 10 µM in assay [2] (setting [7]).
Regarding `O=C1Nc2cc(Nc3nc(Nc4cccc(-c5ncco5)c4)ncc3F)ccc2OC1CCO` (stereo not shown) [Compound 221], the IC50 was greater than 10 µM in assay [1] (setting [5]), less than 10 µM in assay [2] (setting [6]) and less than 10 µM in assay [2] (setting [7]).
With `Fc1cnc(Nc2ccc(-c3cnco3)cc2)nc1Nc1ccc2c(c1)NCCO2` [Compound 222, N4-(3,4-Dihydro-2H,4H-Benz[1,4]oxazin-6-yl)-5-fluoro-N2-[4-(oxazol-5-yl)phenyl]-2,4-pyrimidinediamine], the IC50 was greater than 10 µM in assay [1] (tryptase release, 3 pt); less than 10 µM in assay [2] (setting [8]); less than 10 µM in assay [2] (setting [9]).
For `CC1(C)COc2ccc(Nc3nc(Nc4ccc(-c5cnco5)cc4)ncc3F)cc2N1` [Compound 223, N4-(3,4-Dihydro-3,3-dimethyl-2H,4H-benz[1,4]oxazin-6-yl)-5-fluoro-N2-[4-(oxazol-5-yl)phenyl]-2,4-pyrimidinediamine], the IC50 is greater than 10 µM in assay [1] (tryptase release, 3 pt); less than 10 µM in assay [2] (setting [8]); less than 10 µM in assay [2] (setting [9]).
On to `O=C1COc2ccc(Nc3nc(Nc4ccc(-c5cnco5)cc4)ncc3F)cc2N1` [Compound 224], for which the IC50 in assay [1] (setting [5]) was greater than 10 µM; in assay [2] (setting [6]), less than 10 µM; in assay [2] (setting [7]) it was less than 10 µM.
As to `C[C@@H]1Oc2ccc(Nc3nc(Nc4ccc(-c5cnco5)cc4)ncc3F)cc2NC1=O` [Compound 225], the IC50 in assay [1] (tryptase release, 3 pt) is greater than 10 µM; in assay [2] (setting [8]), less than 10 µM; in assay [2] (setting [9]), less than 10 µM.
Take `O=C1COc2cc(Nc3nc(Nc4ccc(-c5cnco5)cc4)ncc3F)ccc2N1` [Compound 226]: the results for the IC50 in assay [1] (setting [5]), in assay [2] (setting [6]) and in assay [2] (setting [7]) were greater than 10 µM, less than 10 µM and less than 10 µM, respectively.
As for `O=C1Nc2cc(Nc3nc(Nc4ccc(-c5cnco5)cc4)ncc3F)ccc2OC1CCO` (stereo not shown) [Compound 227], the IC50 was greater than 10 µM in assay [1] (setting [5]), less than 10 µM in assay [2] (setting [6]) and less than 10 µM in assay [2] (setting [7]).
For `CN1CCOc2ccc(Nc3nc(Nc4ccc(-c5cnco5)cc4)ncc3F)cc21` [Compound 228], the results for the IC50 in assay [1] (setting [5]), in assay [2] (setting [6]) and in assay [2] (setting [7]) were greater than 10 µM, less than 10 µM and less than 10 µM, respectively.
As for `CN1CCOc2cc(Nc3nc(Nc4ccc(-c5cnco5)cc4)ncc3F)ccc21` [Compound 229], the IC50 in assay [1] (setting [5]) was greater than 10 µM; in assay [2] (setting [6]) it was less than 10 µM; in assay [2] (setting [7]) it was less than 10 µM.
For `CN1C(=O)COc2cc(Nc3nc(Nc4ccc(-c5cnco5)cc4)ncc3F)ccc21` [Compound 230], the IC50 in assay [1] (setting [5]), in assay [2] (setting [6]) and in assay [2] (setting [7]) was greater than 10 µM in each case.
Consider `CN1C(=O)COc2ccc(Nc3nc(Nc4ccc(-c5cnco5)cc4)ncc3F)cc21` [Compound 231], for which the IC50 in assay [1] (setting [5]), in assay [2] (setting [6]) and in assay [2] (setting [7]) was greater than 10 µM each time.
For the molecule `Fc1cnc(Nc2cccc(-c3cnco3)c2)nc1Nc1ccc2c(c1)NCCO2` [Compound 232, N4-(3,4-Dihydro-2H,4H-benz[1,4]oxazin-6-yl)-5-fluoro-N2-[3-(oxazol-5-yl)phenyl]-2,4-pyrimidinediamine], the IC50 in assay [1] (tryptase release, 3 pt) was greater than 10 µM; in assay [2] (setting [8]), less than 10 µM; in assay [2] (setting [9]), less than 10 µM.
`CC1(C)COc2ccc(Nc3nc(Nc4cccc(-c5cnco5)c4)ncc3F)cc2N1` [Compound 233, N4-(3,4-Dihydro-3,3-dimethyl-2H,4H-benz[1,4]oxazin-6-yl)-5-fluoro-N2-[3-(oxazol-5-yl)phenyl]-2,4-pyrimidinediamine]: the IC50 is greater than 10 µM in assay [1] (tryptase release, 3 pt); less than 10 µM in assay [2] (setting [8]); less than 10 µM in assay [2] (setting [9]).
Take `O=C1COc2cc(Nc3nc(Nc4cccc(-c5cnco5)c4)ncc3F)ccc2N1` [Compound 234]: the IC50 in assay [1] (setting [5]) was greater than 10 µM; in assay [2] (setting [6]), less than 10 µM; in assay [2] (setting [7]) it was less than 10 µM.
On to `O=C1Nc2cc(Nc3nc(Nc4cccc(-c5cnco5)c4)ncc3F)ccc2OC1CCO` (stereo not shown) [Compound 235], for which the figures for the IC50 in assay [1] (setting [5]), in assay [2] (setting [6]) and in assay [2] (setting [7]) were greater than 10 µM, less than 10 µM and less than 10 µM, respectively.

The record behind these values is patent publication US20220073536A1 (Rigel Pharmaceuticals, Inc., priority 2003, published 2022).
